Results reported in PMC3026848 (Bioorganic & medicinal chemistry, 2010).
Like-named read-outs stand apart in the source and are kept apart here.

Experiments:
melanoma = melanoma chemotherapy; cited from earlier work
UACC-62 cells = assay: Cell cycle distribution by flow cytometry; assay type: cell-based, human; conditions: UACC-62, 6 days, 0.01 µM to 1 µM, PI staining
[1] = system: PC-3 (human prostate cancer); assay: Screening against PC-3; assay type: cell-based; conditions: unpublished data from this laboratory
[2] = system: NCI-H226 (human lung cancer); assay: Screening against NCI-H226; assay type: cell-based; conditions: unpublished data from this laboratory
[3] = system: UO-31 (human renal cancer); assay: Screening against UO-31; assay type: cell-based; conditions: unpublished data from this laboratory
A431(human skin cancer) = assay: Screening against A431; assay type: cell-based; conditions: unpublished data from this laboratory
[4] = cited from earlier work
[5] = high dosages; cited from earlier work

CN(C)/N=N/c1[nH]cnc1C(N)=O [Dacarbazine, dacarbazine]
response rate (melanoma): 10% to 20

CC(=O)N[C@@H](CSC(=O)Nc1ccc(Cl)cc1)C(=O)O [NACC, N-Acetyl-S-(p-chlorophenylcarbamoyl)cysteine]
effect on cell cycle distribution (UACC-62 cells): no change in cell cycle distribution was observed | activity against PC-3 [1]: Poor activities | activity against NCI-H226 [2]: Poor activities | activity against UO-31 [3]: Poor activities | activity against A431 (A431(human skin cancer)): Poor activities | protein binding ([4]; reported earlier): 84%

O=C(Nc1ccc(Cl)cc1)NS(=O)(=O)c1ccc2c(c1)CCC2 [Sulofenur, reference compound]
protein binding [4]: greater than 99% | adverse effects in clinical trials [5]: hemolytic anemia and methemoglobinemia were observed
